Experiments:
[1] = Elution of latanoprost from silicone drug cores with excipients in PBS (FIGS. 9-12); assay type: physicochemical; settings: 37° C., 100 cpm, 10% glycerol, 5% PEG400, 7.3 wt % DMPC or EPG in Formulations 1 and 2
Description: The silicone formulation (MED6385) is a two part system. Part A contains the silicone and crosslinker while Part B contains the tin catalyst to promote crosslinking. The two parts are combined in a final ratio of 200:1 (Part A: Part B). The required amounts of Latanoprost, the selected excipient (DMPC or EPG), the crosslinker, MED6385 Part A and B are weighed onto a glass slide and mixed for approximately 2 minutes using a plastic mini spatula. Quantities used in the preparation of specific examples are shown below.
After the silicone/latanoprost mixing is complete, the mixture is loaded in the barrel of the syringe extrusion system. The plunger is inserted and excess air is removed. The syringe is then loaded into the extrusion apparatus.
After setup, the extrusion system activated and a silicone latanoprost mixture is extruded down the length of the polyimide tubing. Once the mixture reaches the bottom of the tubing, the tubing is cut using a razor blade and clamped on both ends.
The clamped section of tubing is placed in a humidity chamber to be cured.
Samples, including those shown in FIGS. 9-12, were analyzed for elution by immersion in a PBS (phosphate buffered saline) elution medium. Temperature was maintained at 37° C. with 100 cpm shaking. The elution medium was changed daily (except weekends) for the first two weeks and weekly thereafter. Elution media samples were analyzed by reversed-phase chromatography. Samples were prepared for HPLC analysis by adding 200 μL of internal standard solution (2.4 μg/mL of butylated hydroxyanisole in isopropanol) and vortexing to mix. The amount of latanoprost eluted was determined using a reversed phase HPLC UV detection using a Waters SunFire C18, 3.5 μm, 3.0×100 mm column and detection conditions of the following: 1.0 mL/min flow rate, 200 μL injection volume, 210 nm detection wavelength, using gradient of solvents over a run time of 6 minutes (time zero=63% mobile phase A, 37% mobile phase B, time 4.9 minutes=35% A, 65% B, time 5 minutes=63% A, 37% B) comprising 0.1% Phosphoric Acid in Water (mobile Phase A) and ACN (mobile phase B), 50° C. column temperature set point.

[2] = cited from earlier work
[3] = after topical administration; studies in man; cited from earlier work
subjects = settings: clinical trials, cited from earlier work

SMILES: CCCCCCCCCCCCCC(=O)OC[C@H](COP(=O)([O-])OCC[N+](C)(C)C)OC(=O)CCCCCCCCCCCCC [DMPC, dimyristoyl phosphatidylcholine]
- release (elution) rate of latanoprost from silicone matrix with excipient relative to no excipient [1]: increased elution rate

SMILES: CCCCCCCCCCCCCC(=O)OCC(COP(=O)(O)OCC(O)CO)OC(=O)CCCCCCCCCCCCC (stereo not drawn) [DMPG, dimyristoyl phosphatidylglycerol]
- release (elution) rate of latanoprost from silicone matrix with excipient relative to no excipient [1]: increased elution rate

SMILES: CCCCCCCCCCCCCCCC(=O)OC[C@H](COP(=O)([O-])OCC[N+](C)(C)C)OC(=O)CCCCCCCCCCCCCCC [DPPC, dipalmitoyl phosphatidylcholine]
- release (elution) rate of latanoprost from silicone matrix with excipient relative to no excipient [1]: decreased elution rate

SMILES: CCCCCCCCCCCCCCCC(=O)OCC(COP(=O)(O)OCCN)OC(=O)CCCCCCCCCCCCCCC (stereo not drawn) [DPPE, dipalmitoyl phosphatidylethanolamine]
- release (elution) rate of latanoprost from silicone matrix with excipient relative to no excipient [1]: decreased elution rate

SMILES: CCCCCCCCCCCCCCCCCC(=O)OC[C@H](COP(=O)([O-])OCC[N+](C)(C)C)OC(=O)CCCCCCCCCCCCCCCCC [DSPC, distearoyl phosphatidylcholine]
- release (elution) rate of latanoprost from silicone matrix with excipient relative to no excipient [1]: decreased elution rate

SMILES: CCCCCCCC/C=C\CCCCCCCC(=O)O[C@H](COC(=O)CCCCCCCCCCCCCCC)COP(=O)(O)OCC(O)CO (stereo partly drawn) [POPG, palmitoyl oleoyl phosphatidylglycerol]
- release (elution) rate of latanoprost from silicone matrix with excipient relative to no excipient [1]: increased elution rate

SMILES: CCCCCCCCCCCCCCCCCC(=O)O[C@H](COC(=O)CCCCCCCCCCCCCCC)COP(=O)([O-])OCC[N+](C)(C)C [PSPC, palmitoyl stearoyl phosphatidylcholine]
- release (elution) rate of latanoprost from silicone matrix with excipient relative to no excipient [1]: decreased elution rate

SMILES: OCC(O)CO [glycerol]
- release (elution) rate of latanoprost from silicone matrix with excipient relative to no excipient [1]: rate is increased relative to control

SMILES: CC(C)OC(=O)CCC/C=C\C[C@@H]1[C@@H](CC[C@@H](O)CCc2ccccc2)[C@H](O)C[C@@H]1O [latanoprost, isopropyl-(Z)-7[(1R,2R,3R,5S)3,5-dihydroxy-2-[(3R)-3-hydroxy-5-phenylpentyl]cyclopentyl]-5-heptenoate]
- solubility in acetone, ethanol, ethyl acetate, isopropanol, methanol and octanol [2]: freely soluble
- solubility in acetonitrile [2]: very soluble
- solubility in water [2]: practically insoluble in water
- aqueous solubility ([2]; in water at 25 degrees C.): 50 micrograms/mL
- aqueous solubility, by weight ([2]; in water at 25 degrees C.): about 0.005 % by weight
- time to peak concentration in the aqueous humor [3]: about two
- conjunctivitis, diplopia, discharge from the eye, subjects (subjects; Xalatan product information): Less than 1%
- retinal artery embolus, retinal detachment, vitreous hemorrhage from diabetic retinopathy (subjects; Xalatan product information): rarely reported
- subjects requiring discontinuation of therapy because of intolerance to conjunctival hyperemia (subjects; Xalatan product information): Less than 1%
- systemic adverse events: upper respiratory tract infection/cold/flu, rate (subjects): approximately 4%

— patent publication US20150064230A1, “SUSTAINED RELEASE DELIVERY OF ONE OR MORE AGENTS” (Mati Therapeutics Inc., priority 2009, published 2015)
